Test results reported in patent US5053418A, “Antiprotozoal agents” (Burroughs Wellcome Co., priority 1983, dated 1991).

Test system: P.yoelii
Assay: In vivo effect on P.yoelii in mice (inhibition of parasitaemia)
Settings: for inhibition in vivo at 0.5 mg/kg: 0.50 mg/Kg × 7; for inhibition in vivo at 1 mg/kg: 1.0 mg/Kg × 7; for inhibition in vivo at 3 mg/kg: 3.0 mg/Kg × 7; for inhibition in vivo at 2.5 mg/kg: 2.5 mg/Kg × 7; for inhibition in vivo at 5 mg/kg: 5.0 mg/Kg × 7; for ED50 for naphthoquinone: 5760 min
Description: The naphthoquinone and the pyridinol were each suspended in 0.25% (w/v) celacol in water by milling for 16-24 hours at 26° C. The suspensions were subsequently serially diluted with 0.25% (w/v) celacol in water. At time 0, 0.1 ml of a suspension of 10^7 P.yoelii-parasitised red blood cells/ml of phosphate buffered saline were injected intravenously into 15-20 g mice through a tail vein. Groups of 5 mice per treatment were dosed orally at times 6, 22, 30, 46, 54, 70 and 78 hours with 0.2 ml of the drug suspension. Tail-blood smears were taken at 96 hours, stained with Giemsa and the percentage of red blood cells infected determined and compared to untreated, infected controls. Percent inhibition was correlated with dose to provide ED50 values for each drug alone. In subsequent experiments dilutions of the two drugs, alone and in combination were used, and the percentage inhibition of parasitaemia and ED50 values (of each drug at fixed concentrations of the other) were determined. The results are shown respectively in Tables V and VI. A number of combinations of clopidol (4-pyridinol) and naphthoquinones were assayed and compared with each drug alone for their antimalarial effect against P.yoelii in vivo by the method of Example 4.

[1] = Plasmodium yoelii, po, 96 h, naphthoquinone alone
[2] = naphthoquinone 0.50 + clopidol 1.4 mg/Kg × 7
[3] = naphthoquinone 0.50 + clopidol 4.3 mg/Kg × 7
[4] = naphthoquinone 1.0 + clopidol 1.4 mg/Kg × 7
[5] = naphthoquinone 1.0 + clopidol 4.3 mg/Kg × 7
[6] = naphthoquinone 2.5 + clopidol 1.4 mg/Kg × 7
[7] = naphthoquinone 2.5 + clopidol 4.3 mg/Kg × 7
[8] = naphthoquinone 5.0 + clopidol 1.4 mg/Kg × 7
[9] = naphthoquinone 5.0 + clopidol 4.3 mg/Kg × 7

With O=C1C(O)=C(CCCCCCCCC2CCCCC2)C(=O)c2ccccc21 the inhibition in vivo at 0.5 mg/kg [1] was 7%, the inhibition in vivo at 1 mg/kg [1] was 19% and the “% inhibition of parasitaemia (combination)” value (from here on “% inhibition of parasitaemia”) (naphthoquinone 0.50 + clopidol 2.5 mg/Kg × 7) was 10%. For the same compound, the “% inhibition of parasitaemia” value (naphthoquinone 0.50 + clopidol 5.0 mg/Kg × 7) was 45%, the “% inhibition of parasitaemia” value (naphthoquinone 1.0 + clopidol 2.5 mg/Kg × 7) was 31% and the “% inhibition of parasitaemia” value (naphthoquinone 1.0 + clopidol 5.0 mg/Kg × 7) was 55%.

For O=C1C(O)=C(C2CCCCC2)C(=O)c2ccccc21, the inhibition in vivo at 1.5 mg/kg (Plasmodium yoelii, po, 96 h, naphthoquinone alone, 1.5 mg/Kg × 7) was 1%, the inhibition in vivo at 3 mg/kg [1] was 15% and the “% inhibition of parasitaemia” value (naphthoquinone 1.5 + clopidol 1.9 mg/Kg × 7) was 47%. The “% inhibition of parasitaemia” value (naphthoquinone 1.5 + clopidol 3.75 mg/Kg × 7) was 76%, the “% inhibition of parasitaemia” value (naphthoquinone 3.0 + clopidol 1.9 mg/Kg × 7) was 64% and the “% inhibition of parasitaemia” value (naphthoquinone 3.0 + clopidol 3.75 mg/Kg × 7) was 97%.

O=C1C(O)=C(C2CCC(c3ccccc3)CC2)C(=O)c2ccccc21 (stereo not shown) was tested, and the inhibition in vivo at 0.04 mg/kg (Plasmodium yoelii, po, 96 h, naphthoquinone alone, 0.040 mg/Kg × 7) was 0%, the inhibition in vivo at 0.05 mg/kg (Plasmodium yoelii, po, 96 h, naphthoquinone alone, 0.050 mg/Kg × 7) was 0% and the “% inhibition of parasitaemia” value (naphthoquinone 0.040 + clopidol 1.9 mg/Kg × 7) was 23%. The “% inhibition of parasitaemia” value (naphthoquinone 0.040 + clopidol 3.75 mg/Kg × 7) was 39%, the “% inhibition of parasitaemia” value (naphthoquinone 0.050 + clopidol 1.9 mg/Kg × 7) was 34% and the “% inhibition of parasitaemia” value (naphthoquinone 0.050 + clopidol 3.75 mg/Kg × 7) was 73%.

CC(C)(C)C1CCC(CC2=C(O)C(=O)c3ccccc3C2=O)CC1 (stereo not shown) was tested, and the inhibition in vivo at 0.5 mg/kg [1] was 10%, the inhibition in vivo at 1 mg/kg [1] was 19% and the “% inhibition of parasitaemia” value [2] was 17%. For the same compound, the “% inhibition of parasitaemia” value [3] was 61%, the “% inhibition of parasitaemia” value [4] was 52% and the “% inhibition of parasitaemia” value [5] was 93%.

CCC1(CC)CCC(C2=C(O)C(=O)c3ccccc3C2=O)CC1 was tested, and the inhibition in vivo at 0.5 mg/kg [1] was 5%, the inhibition in vivo at 1 mg/kg [1] was 4% and the “% inhibition of parasitaemia” value [2] was 14%. For the same compound, the “% inhibition of parasitaemia” value [3] was 54%, the “% inhibition of parasitaemia” value [4] was 68% and the “% inhibition of parasitaemia” value [5] was 75%.

With O=C1C(O)=C(C2CCC(c3ccc(Cl)cc3)CC2)C(=O)c2ccccc21 (stereo not shown) the inhibition in vivo at 0.01 mg/kg (Plasmodium yoelii, po, 96 h, naphthoquinone alone, 0.010 mg/Kg × 7) was 5%, the inhibition in vivo at 0.02 mg/kg (Plasmodium yoelii, po, 96 h, naphthoquinone alone, 0.020 mg/Kg × 7) was 12% and the “% inhibition of parasitaemia” value (naphthoquinone 0.010 + clopidol 1.4 mg/Kg × 7) was 29%. For the same compound, the “% inhibition of parasitaemia” value (naphthoquinone 0.010 + clopidol 4.3 mg/Kg × 7) was 68%, the “% inhibition of parasitaemia” value (naphthoquinone 0.020 + clopidol 1.4 mg/Kg × 7) was 55% and the “% inhibition of parasitaemia” value (naphthoquinone 0.020 + clopidol 4.3 mg/Kg × 7) was 90%.

In the case of CC(C)(C)OC1CCC(C2=C(O)C(=O)c3ccccc3C2=O)CC1 (stereo not shown), the inhibition in vivo at 0.13 mg/kg (Plasmodium yoelii, po, 96 h, naphthoquinone alone, 0.13 mg/Kg × 7) is reported as 1%, the inhibition in vivo at 0.25 mg/kg (Plasmodium yoelii, po, 96 h, naphthoquinone alone, 0.25 mg/Kg × 7) is reported as 5% and the “% inhibition of parasitaemia” value (naphthoquinone 0.13 + clopidol 4.3 mg/Kg × 7) is reported as 84%. The “% inhibition of parasitaemia” value (naphthoquinone 0.13 + clopidol 13 mg/Kg × 7) was 31%, the “% inhibition of parasitaemia” value (naphthoquinone 0.25 + clopidol 4.3 mg/Kg × 7) was 97% and the “% inhibition of parasitaemia” value (naphthoquinone 0.25 + clopidol 13 mg/Kg × 7) was 80%.

CC(=O)OC1=C(C2CCCCC2)C(=O)c2ccccc2C1=O was tested, and the inhibition in vivo at 2.5 mg/kg [1] was 2%, the inhibition in vivo at 5 mg/kg [1] was 3% and the “% inhibition of parasitaemia” value [6] was 3%. For the same compound, the “% inhibition of parasitaemia” value [7] was 50%, the “% inhibition of parasitaemia” value [8] was 22% and the “% inhibition of parasitaemia” value [9] was 86%.

CC1(C)CCC(C2=C(O)C(=O)c3ccccc3C2=O)CC1 was tested, and the inhibition in vivo at 2.5 mg/kg [1] was 0%, the inhibition in vivo at 5 mg/kg [1] was 0% and the “% inhibition of parasitaemia” value [6] was 22%. The “% inhibition of parasitaemia” value [7] was 45%, the “% inhibition of parasitaemia” value [8] was 46% and the “% inhibition of parasitaemia” value [9] was 73%.

O=C1C(O)=C(C2CCC(C3CCCCC3)CC2)C(=O)c2ccccc21 (stereo not shown) [2-(4-cyclohexylcyclohexyl)-3-hydroxy-1,4-naphthoquinone] gave an inhibition in vivo at 0.019 mg/kg (Plasmodium yoelii, po, 96 h, naphthoquinone alone, 0.019 mg/Kg/dose, 7 doses) of 13%, an inhibition in vivo at 0.037 mg/kg (Plasmodium yoelii, po, 96 h, naphthoquinone alone, 0.037 mg/Kg/dose, 7 doses) of 28% and an inhibition in vivo at 0.075 mg/kg (Plasmodium yoelii, po, 96 h, naphthoquinone alone, 0.075 mg/Kg/dose, 7 doses) of 17%. For the same compound, the inhibition in vivo at 0.15 mg/kg (Plasmodium yoelii, po, 96 h, naphthoquinone alone, 0.15 mg/Kg/dose, 7 doses) was 16%, the inhibition in vivo at 0.3 mg/kg (Plasmodium yoelii, po, 96 h, naphthoquinone alone, 0.30 mg/Kg/dose, 7 doses) was 74% and the inhibition in vivo at 0.6 mg/kg (Plasmodium yoelii, po, 96 h, naphthoquinone alone, 0.60 mg/Kg/dose, 7 doses) was 99%. The ED50 for naphthoquinone (fixed clopidol 0.000 mg/kg/dose (alone)) was 0.224 (0.224 to 0.208) mg/Kg/dose, the ED50 for naphthoquinone (fixed clopidol 0.94 mg/kg/dose) was 0.109 (0.125 to 0.0909) mg/Kg/dose and the ED50 for naphthoquinone (fixed clopidol 1.9 mg/kg/dose) was 0.0762 (0.0975 to 0.0599) mg/Kg/dose. For the same compound, the ED50 for naphthoquinone (fixed clopidol 3.75 mg/kg/dose) was 0.0519 (0.0599 to 0.0450) mg/Kg/dose, the ED50 for naphthoquinone (fixed clopidol 7.5 mg/kg/dose) was 0.0219 (0.0274 to 0.0151) mg/Kg/dose and the ED50 for naphthoquinone (fixed clopidol 15. mg/kg/dose) was 0.0197 (0.0242 to 0.0121) mg/Kg/dose. The “% inhibition of parasitaemia” value (naphthoquinone 0.019 + clopidol 0.94 mg/Kg/dose) was 16%, the “% inhibition of parasitaemia” value (naphthoquinone 0.019 + clopidol 1.9 mg/Kg/dose) was 23% and the “% inhibition of parasitaemia” value (naphthoquinone 0.019 + clopidol 3.7 mg/Kg/dose) was 11%. For the same compound, the “% inhibition of parasitaemia” value (naphthoquinone 0.019 + clopidol 7.5 mg/Kg/dose) was 42%, the “% inhibition of parasitaemia” value (naphthoquinone 0.019 + clopidol 15 mg/Kg/dose) was 48% and the “% inhibition of parasitaemia” value (naphthoquinone 0.037 + clopidol 0.94 mg/Kg/dose) was 20%. For the same compound, the “% inhibition of parasitaemia” value (naphthoquinone 0.037 + clopidol 1.9 mg/Kg/dose) was 23%, the “% inhibition of parasitaemia” value (naphthoquinone 0.037 + clopidol 3.7 mg/Kg/dose) was 32% and the “% inhibition of parasitaemia” value (naphthoquinone 0.037 + clopidol 7.5 mg/Kg/dose) was 73%. The “% inhibition of parasitaemia” value (naphthoquinone 0.037 + clopidol 15 mg/Kg/dose) was 77%, the “% inhibition of parasitaemia” value (naphthoquinone 0.075 + clopidol 0.94 mg/Kg/dose) was 35% and the “% inhibition of parasitaemia” value (naphthoquinone 0.075 + clopidol 1.9 mg/Kg/dose) was 45%. The “% inhibition of parasitaemia” value (naphthoquinone 0.075 + clopidol 3.7 mg/Kg/dose) was 69%, the “% inhibition of parasitaemia” value (naphthoquinone 0.075 + clopidol 7.5 mg/Kg/dose) was 86% and the “% inhibition of parasitaemia” value (naphthoquinone 0.15 + clopidol 0.94 mg/Kg/dose) was 62%. The “% inhibition of parasitaemia” value (naphthoquinone 0.15 + clopidol 1.9 mg/Kg/dose) was 80%, the “% inhibition of parasitaemia” value (naphthoquinone 0.15 + clopidol 3.7 mg/Kg/dose) was 92% and the “% inhibition of parasitaemia” value (naphthoquinone 0.30 + clopidol 0.94 mg/Kg/dose) was 96%. The “% inhibition of parasitaemia” value (naphthoquinone 0.30 + clopidol 1.9 mg/Kg/dose) was 98%.

CCCCCCCCCC1=C(O)C(=O)c2ccccc2C1=O [(CH2)8 Me, 2-n-nonyl-3-hydroxy-1,4-naphthoquinone] was tested, and the inhibition in vivo at 3 mg/kg [1] was 3%, the inhibition in vivo at 9 mg/kg (Plasmodium yoelii, po, 96 h, naphthoquinone alone, 9.0 mg/Kg × 7) was 69% and the “% inhibition of parasitaemia” value (naphthoquinone 3.0 + clopidol 1.4 mg/Kg × 7) was 42%. The “% inhibition of parasitaemia” value (naphthoquinone 3.0 + clopidol 4.3 mg/Kg × 7) was 76%, the “% inhibition of parasitaemia” value (naphthoquinone 9.0 + clopidol 1.4 mg/Kg × 7) was 88% and the “% inhibition of parasitaemia” value (naphthoquinone 9.0 + clopidol 4.3 mg/Kg × 7) was 99%.

For O=C1C(O)=C(C2CCC(C3CCCCC3)CC2)C(=O)c2ccccc21 (stereo not shown) [drawing 17, 2-(4-cyclohexylcyclohexyl)-3-hydroxy-1,4-naphthoquinone], the inhibition in vivo at 0.075 mg/kg (Plasmodium yoelii, po, 96 h, naphthoquinone alone, 0.075 mg/Kg × 7) was 17%, the inhibition in vivo at 0.15 mg/kg (Plasmodium yoelii, po, 96 h, naphthoquinone alone, 0.15 mg/Kg × 7) was 16% and the “% inhibition of parasitaemia” value (naphthoquinone 0.075 + clopidol 1.9 mg/Kg × 7) was 45%. For the same compound, the “% inhibition of parasitaemia” value (naphthoquinone 0.075 + clopidol 3.75 mg/Kg × 7) was 69%, the “% inhibition of parasitaemia” value (naphthoquinone 0.15 + clopidol 1.9 mg/Kg × 7) was 80% and the “% inhibition of parasitaemia” value (naphthoquinone 0.15 + clopidol 3.75 mg/Kg × 7) was 92%.

With CC(C)(C)C1CCC(C2=C(O)C(=O)c3ccccc3C2=O)CC1 (stereo not shown) [drawing 25] the inhibition in vivo at 0.6 mg/kg (Plasmodium yoelii, po, 96 h, naphthoquinone alone, 0.6 mg/Kg × 7) was 24%, the inhibition in vivo at 0.9 mg/kg (Plasmodium yoelii, po, 96 h, naphthoquinone alone, 0.9 mg/Kg × 7) was 35% and the “% inhibition of parasitaemia” value (naphthoquinone 0.6 + clopidol 2.5 mg/Kg × 7) was 74%. The “% inhibition of parasitaemia” value (naphthoquinone 0.6 + clopidol 5.0 mg/Kg × 7) was 94%, the “% inhibition of parasitaemia” value (naphthoquinone 0.9 + clopidol 2.5 mg/Kg × 7) was 96% and the “% inhibition of parasitaemia” value (naphthoquinone 0.9 + clopidol 5.0 mg/Kg × 7) was 97%.
